# Test results reported in patent publication US20190077856A1, “METHOD OF TREATING DISEASES USING KINASE MODULATORS” (Memorial Sloan Kettering Cancer Center, priority 2016, published 2019).
# How the values were obtained:
# Meso34 [1] = assay: Cell surface HLA-A by flow cytometry (BB7) after 72 hours with inhibitor; type: cell-based, human; settings: Meso34 without an EGFR mutation, same dose
# PC9 = assay: as above; type: cell-based, human; settings: PC9, activating EGFR mutation (del E746-A750)
# [2] = tested on: NSCLC cell lines H827, H1975, H1299, A549; assay: Surface HLA-ABC (MHC-I) on panel of NSCLC cell lines; type: cell-based, human; settings: for surface MHC-I: cell lines that had the sensitizing mutation; for sensitivity to up-regulating surface MHC-I: cell lines with downstream activating RAS mutations
# Text: (§1) 1% DMSO was used as a vehicle control. […] Use of ESK antibody to a peptide derived from the oncoprotein WT1 that is presented on HLA-A0201. […] PRAME is a TCRm antibody against an epitope of PRAME tumor antigen presented on HLA-A0201 on SKMEL5. Experimental setup was similar to FIG. 2A. […] FIG. 2D: Use of EGFRi erlotinib and afatanib, along with MEKi trametinib on H827 (EGFR E746del-A750 mutation), H1975 (L858R/T790M), H1299 (EGFR wt, NRAS Q61K), and A549 (EGFR wt/KRAS G12S) to alter surface HLA-ABC levels. Student's t-test was done to compare each treatment to vehicle control. *P values annotated as in FIG. 1E. […] FIG. 2F: H1299 cells were transduced with retroviral vectors expressing EGFR L858R and were analyzed for surface pan HLA-ABC using W6/32. […] The NRAS Q61K mutation was introduced into H827 and cells were treated with EGFRi or MEKi as done in FIG. 2G.
# (§2) Small molecule inhibitor studies: Compounds were obtained from SelleckChem (Houston, Tx. USA). Drugs were used at sub-cytostatic doses by titration using the Cell Titer Glo assay (Promega). All drugs were used in vitro at indicated doses in 1% dimethyl sulfoxide (DMSO).
# The mechanism by which the MAP kinase pathway suppresses levels of HLA-A is unknown. Given that many cancers have activating mutations in specific genes in the MAP kinase pathway, inhibition of the identified hits was investigated in cell lines harboring mutations in EGFR, or downstream in Ras. A panel of NSCLC cell lines with activating mutations in EGFR, such as the delE746-A750 in H827, or L858R/T790M mutation in H1975, was utilized. The delE746-A750 confers sensitivity to erlotinib, whereas the T790M confers resistance to erlotinib and other first generation EGFR inhibitors, but is sensitive to afatanib (Cross et al., 2014, Cancer Discov 4(9):1046-61). EGFR wild type NSCLC lines with downstream mutations, such as activating NRAS Q61K in H1299 or KRAS G12S in A549, were also utilized.
# JMN [3] = assay: Cell surface HLA-A / HLA-ABC by flow cytometry (BB7, W6/32) after 72 hours; type: cell-based, human
# Text: 1% DMSO was used as a vehicle control. […] Experimental setup was similar to FIG. 2A.
# HLA-A and B2M protein = settings: erlotinib (EGFRi), 72 hours
# Description: The HLA-A and B2M promoter was cloned upstream of the Gaussian Luciferase (GLuc) gene. Secreted embryonic alkaline phosphatase (SEAP) under the CMV promoter was used as a normalization factor.
# H827 = settings: similar level of suppression of pERK
# Text: as §1, §2
# JMN [4] = assay: Time course of MEK inhibition and HLA-A / B2M protein, western blot; type: cell-based, human; settings: 50 nM trametinib
# Description: FIG. 11: JMN was treated with 50 nM trametinib and lysate was analyzed as in FIG. 4C at different time points.
# (§3) It was hypothesized that the inhibition of the MAP kinase pathway might act on other components of the antigen presentation machinery in addition to MHC-I molecules, thus allowing increased epitope expression in the more abundant cell surface HLA molecules.
# SK-MEL-5 = assay: ADCC assay (51Cr release) with TCR mimic mAb Pr20m (PRAME) after trametinib; type: cell-based, human
# Description: (§4) Cells were incubated for 72 hours with either vehicle control or trametinib and subsequently exposed to either isotype antibody or ESKM in ADCC assay. FIG. 3B depicts an ADCC assay on Meso34 (human mesothelioma). The experimental setup was similar to FIG. 3A. FIG. 3C depicts an ADCC assay on SKMEL5 (human melanoma) using TCRm mAb PRAME against the PRAME epitope; the experimental setup was similar to FIG. 3A. FIG. 3D: B16F10 cells were exposed to pmel-1 (gp100) specific TCR T-cells for 24 hours, then killing was assessed using a clonogenic assay described previously (Budhu et al. 2010, J Exp Med 207:223-235)
# (§5) ADCC: The HLA-A*02:01 positive mesothelioma cell lines JMN and Meso34, along with the melanoma cell line SK-MELS were used in the ADCC assay as a target (May et al. 2007, Clin Cancer Res 13:4547-4555) . Antibodies ESKM (Veomett et al., 2014, Clin Cancer Res 20(15):4036-4046), PRAME, or its isotype control hIgG1 at 3 ug/ml were incubated with target cells and fresh healthy donor PBMCs at different effector/target ratios for 6 hours, along with indicated doses of vehicle or trametinib in RPMI (Roswell Park Memorial Institute medium) supplemented with 10% fetal bovine serum (FBS). The supernatant was harvested, and the cytotoxicity was measured by a ^51Cr release assay (Perkin Elmer).
# Meso34 [5] = assay: ADCC assay (51Cr release) with TCR mimic antibody ESKM after trametinib; type: cell-based, human; settings: 72 hours trametinib, non-cytotoxic dose
# Description: as §4, §5
# JMN [6] = assay: as above; type: cell-based, human; settings: 72 hours trametinib, non-cytotoxic dose
# Description: as §4, §5
# pERK = assay: Titration of MEK inhibition by western blot for pERK and ERK; type: cell-based, human; settings: JMN and Meso34 cells; time=1 hour
# Text: as §3
compound,measurement,setting,value
CN(C)C/C=C/C(=O)Nc1cc2c(Nc3ccc(F)c(Cl)c3)ncnc2cc1O[C@H]1CCOC1 [afatanib],HLA-A up-regulation response,Meso34 [1],did not respond
same,HLA-A up-regulation response,PC9,responded
same,surface MHC-I,[2],up-regulated
same,sensitivity to up-regulating surface MHC-I,[2],not observed
same,HLA-A up-regulation response,"JMN [3]; 72 hours, BB7 binding",responded
C#Cc1cccc(Nc2ncnc3cc(OCCOC)c(OCCOC)cc23)c1 [erlotinib],HLA-A and B2M protein,HLA-A and B2M protein,dose dependent increase
same,surface MHC-I response compared with MEKi by trametinib,H827,responded more strongly
same,surface MHC-I,[2],up-regulated
same,sensitivity to up-regulating surface MHC-I,[2],not observed
CC(=O)Nc1cccc(-n2c(=O)n(C3CC3)c(=O)c3c(Nc4ccc(I)cc4F)n(C)c(=O)c(C)c32)c1 [trametinib],time of maximal increases of HLA-A and B2M,JMN [4],72 h
same,time of maximal inhibition of MEK,JMN [4],3 h
same,increased cytotoxicity of Pr20m mAb (ADCC),SK-MEL-5,also observed
same,cytotoxicity of ESKM (ADCC),Meso34 [5],increased
same,cytotoxicity of ESKM (ADCC),JMN [6],increased
same,dose to which cells were sensitive (pERK inhibition),pERK,less than 10 nM
"EGF: epidermal growth factor, EGF protein that turns on EGFR (NSDSECPLSHDGYCLHDGVCMYIEALDKYACNCVVGYIGERCQYRDLKWWELR; Epidermal growth factor; UniProt P01133 971-1023, looked up)",surface HLA-A,JMN [3]; 10 nM EGF for 72 hours,suppressed
same,"surface HLA-A,B,C",JMN [3]; 10 nM EGF for 72 hours,suppressed
